Data: paper PMC3800186 (Biochemistry, 2013)
Entries after “also recorded” stand apart in the source; their conditions may differ.

Columns and labels:
S375A gp120 = S375A gp120 (Human immunodeficiency virus type 1 group M subtype B, UniProt P35961, S370A); type: binding, HIV-1; conditions: immobilized S375A gp120, SPR
[1] = molecular target: S375A gp120 interaction with sCD4 (Human immunodeficiency virus type 1 group M subtype B, UniProt P35961, S370A); test: SPR KR21/sCD4 competition over immobilized S375A gp120; type: binding, HIV-1; conditions: S375A versus WT
[2] = system: gp120 interaction with sCD4; conditions: read-out: IC50(SPR) sCD4, shown for comparison, ref ([19]) and ([30]); cited from earlier work
[3] = system: gp120 interaction with mAb 17b; conditions: read-out: IC50(SPR) mAb 17b, shown for comparison, ref ([19]) and ([30]); cited from earlier work
mutant gp120 (S375W) = conditions: ref ([15]); cited from earlier work
[4] = system: mutant gp120 (I423P) binding of F105 antibody; conditions: ref ([15], [48]); cited from earlier work

Molecule	direct binding to S375A gp120 (S375A gp120)	reduction in sCD4 inhibitory potency, S375A compared to WT gp120 [1] [fold]	IC50 [2] [nM]	IC50 [3] [nM]	binding to gp120 with pocket-filling S375W mutation (mutant gp120 (S375W))	inhibition of sCD4 binding to mutant gp120 (S375W) (mutant gp120 (S375W))	inhibition of F105 antibody binding to mutant gp120 (I423P) [4]
CC[C@H](C)[C@H](NC(=O)[C@@H](N)CCCNC(=N)N)C(=O)N[C@@H](CC(N)=O)C(=O)N[C@@H](CC(N)=O)C(=O)N[C@H](C(=O)N1C[C@@H](n2cc([C]34[CH]5[CH]6[CH]7[CH]3[Fe]6754389%10[CH]4[CH]3[CH]8[CH]9[CH]4%10)nn2)C[C@H]1C(=O)N[C@@H](Cc1c[nH]c2ccccc12)C(=O)NCCC(=O)N[C@@H](CCCCNC(=O)CCCC[C@@H]1SC[C@@H]2NC(=O)N[C@@H]21)C(=O)NCC(N)=O)[C@@H](C)CC (stereo partly drawn) [KR21, R^1-I^2-N^3-N^4-I^5-X^6-W^7-βA^8-BtLys^9-G^10]	severely disrupted; also recorded: could not be fitted	20	85	110			
RINNIPWSEAMM [12p1]			1100	1600	completely abrogated	does not inhibit; also recorded: resistant	inhibits
